{"source": "paper PMC12547752", "about": "“Silodosin as a Novel Inhibitor of Acetylcholinesterase, Butyrylcholinesterase, and BETA-Secretase 1: In Vitro and In Silico Studies” (ACS Omega, 2025)", "molecular_target": "T1, butyrylcholinesterase (BuChE) (Equus caballus, UniProt P81908)", "T1 construct": "gene BCHE", "T1 sequence (P81908 whole entry)": "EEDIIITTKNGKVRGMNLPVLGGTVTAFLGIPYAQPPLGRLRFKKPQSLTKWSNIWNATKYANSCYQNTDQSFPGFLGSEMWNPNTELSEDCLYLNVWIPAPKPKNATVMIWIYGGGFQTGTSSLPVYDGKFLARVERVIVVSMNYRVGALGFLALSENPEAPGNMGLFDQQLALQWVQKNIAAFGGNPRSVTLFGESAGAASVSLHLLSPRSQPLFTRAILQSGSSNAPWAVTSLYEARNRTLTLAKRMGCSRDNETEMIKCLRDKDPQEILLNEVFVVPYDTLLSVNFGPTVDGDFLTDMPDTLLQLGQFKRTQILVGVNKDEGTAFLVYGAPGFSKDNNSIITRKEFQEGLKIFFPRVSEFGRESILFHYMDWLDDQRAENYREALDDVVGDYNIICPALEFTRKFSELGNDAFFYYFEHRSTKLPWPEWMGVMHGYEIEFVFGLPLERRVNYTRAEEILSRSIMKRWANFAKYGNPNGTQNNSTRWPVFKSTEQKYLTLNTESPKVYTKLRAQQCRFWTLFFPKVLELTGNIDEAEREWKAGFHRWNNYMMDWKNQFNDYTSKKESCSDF", "assay": "Ellman colorimetric assay with equine serum BuChE, concentration-response", "assay_type": "biochemical"}
{"compound": "C[C@H](Cc1cc2c(c(C(N)=O)c1)N(CCCO)CC2)NCCOc1ccccc1OCC(F)(F)F", "note": "[silodosin]", "values": [{"measurement": "IC50", "result": "3.02 ± 0.05", "unit": "µM"}]}
